Columns and labels:
[1] = biological target: T1, 5-HT2A (Mus musculus, UniProt P35363); experiment: Fluo-4 Ca2+ signals in brown adipocytes; type: cell-based
T1 construct: endogenous in cells; host or cells: immortalized murine brown adipocytes (differentiated)
Source text: Immortalized BA progenitor cells obtained from 5-HT2A KO (B6; 129-5-HT2Atm1a/Nju from Nanjing Biomedical Research Institute of Nanjing University) mice were differentiated for 9 days to produce mature BAs. Cells were then stained with fluo-4 and treated with different concentrations of 5-HT to obtain a dose response curve. Values from BAs expressing 5-HT2A used for other experiments were plotted as a WT comparison.

[2] = tested on: BAT cells; experiment: Serotonin on isoproterenol-stimulated cAMP and thermogenic program in BAT cells; type: cell-based, mouse; details: serotonin prior to isoproterenol
Protocol: To examine whether serotonin could alter cAMP and the induction of the thermogenic program in a cell autonomous manner, BAT cells were treated with the concentrations of serotonin observed in the BAT of Tph1^+/+ mice fed a HFD (FIG. 9b) prior to stimulation with isoproterenol ([…]). Serotonin treatment attenuated isoproterenol-stimulated cAMP and phosphorylation of protein kinase A substrates such as hormone sensitive lipase (HSL […]-FIG. 9c) and importantly also blunted the induction of the thermogenic gene program (FIG. 9d-f). […] Cell Culture. An immortalized brown adipocyte (BA) cell line derived from mouse fetal brown fat (as described in Uldry et al., Cell metabolism, 3 (2006) 333-341) was cultured and differentiated as previously described in Mottillo, Journal of Biological Chemistry, 287 (2012) 25038-25048. Briefly, confluent cells were placed in induction media (0.5 mM IBMX; 0.25 mM indomethacin; 2 μg/ml dexamethasone; 1 nM T3, 20 nM insulin) for two days and subsequently maintained on differentiation media (1 nM T3, 20 nM insulin). All experiments were performed on cultures 6-8 days post-induction. Unless otherwise indicated, cells were rinsed with PBS and media was changed to HEPES-buffered Krebs Ringer buffer (HKRB)+1% BSA. Where indicated, BAs were treated with serotonin for 30 min (100 μM; Sigma) followed by isoproterenol (1 nM, Sigma) for 4 h. […] cAMP measurements. cAMP levels were measured in BA stimulated for 10 min with isoproterenol (1 nM). […] The cAMP levels were quantified by ELISA (Biomedical Technologies Inc.) as previously described (Mottillo et al., American Journal of Physiology-Endocrinology And Metabolism, 301 (2011) […]-[…]). […] The expression pattern of various genes was quantified by qRT-PCR analysis, as previously described (Mottillo et al., American journal of physiology, 293 (2007) […]-1197). […] 25 ng of cDNA was analyzed in a 10 μl quantitative PCR reaction (Amplitaq Gold) as previously described. […] The extracts were recovered and proteins were quantified by using the bicinchoninic acid method (Pierce). […]

[3] = tested on: brown adipose tissue; experiment: Acute 5-HT with or without xylamidine pretreatment: BAT activity in vivo; parameters: species or system mice
Protocol: Mice housed at 30° C. were injected with xylamidine (3 mg/kg, −2 hour), 5-HT (5 mg/kg, −1 hour) and/or CL-316,243 (1 mg/kg, −20 min). […] Interscapular surface temperature under saline (C) and CL-316,243 (D) conditions were quantified. n=6. † indicates interaction effect via 2-way ANOVA. * indicates significant difference from saline via bonferonni post-hoc test. In all graphs, bars represent mean and error bars represent S.E.M;
(§1) To investigate effects in vivo, 5-HT (5 mg/kg i.p.) was acutely administered to mice with or without a peripherally-restricted 5-HT2A antagonist (xylamidine tosylate) (3 mg/kg i.p.) to assess BAT function. Chow fed female FVBNJ mice (Jackson laboratories) were fasted for 6 hours. Each mouse was intraperitoneal injected with Vehicle (0.9% NaCl) or Xylamidine (3 mg/kg in 0.9% NaCl) at −100 minutes, followed by Vehicle or 5-HT (5 mg/kg in 0.9% NaCl) at −40 minutes, and finally Glucose ([…]) at 0 minutes. Blood glucose was monitored at the indicated times (FIG. 22). Chow mice were administered xylamidine tosylate (3 mg/kg daily) via intraperitoneal injection for ˜5 weeks. Mice were then moved to anaesthetized and injected with either saline or CL-316,243. Oxygen consumption was recorded while at 30° C. Finally, xylamidine tosylate (3 mg/kg i.p. daily) was administered to mice on a HFD and indices of whole body metabolism, such as resting energy expenditure, glucose tolerance and NAFLD, were evaluated. The mRNA and protein expression of markers of beige adipose tissue (UCP1, PRDM16, NDUFB8, SDHB, MTCO1, UQCRC2 and ATP5A) were also evaluated.

[4] = tested on: UCP1; experiment: Ucp1 promoter activity, Ucp1 mRNA and UCP1 protein in brown adipocytes; type: cell-based, mouse
Protocol: Using RNA-Seq, cultured human brown and beige adipocytes were interrogated for 5-HT receptor mRNA expression. Immortalized murine brown adipocytes (BAs) were treated with or without the selective 5-HT reuptake inhibitor (SSRI), paroxetine (250 nM). Subsequent studies were conducted with and without 5-HT2A agonists (1 pM-10 uM TCB-2, 1 pM-10 uM AL-34662, and 1 pM-10 uM NBOH-2C-CN) and 5-HT2A antagonists (100 fM-100 pM MDL-100907, 100 pM-10 uM xylamidine tosylate, 1 nM ketanserin, 10 nM altanserin, 100 fM-100 pM EMD-281,014, and 100 pM-10 uM sarpogrelate hydrochloride).
BA progenitors were isolated and immortalized from WT and serotonin transporter (SERT; Gene: Slc6a4) KO mice. These cells were then differentiated for 7 days to obtain mature BAs. BAs were then treated with different doses of 5-HT for 4 hours. RNA was isolated and quantified using RT-qPCR with probes specific for Slc6a4, Ucp1 and PPIA.
BA progenitors were isolated from mice expressing a transgene where the luciferase gene is driven by the Ucp1 promoter (i.e. Ucp1-Luc2 mice; a.k.a. ThermoMouse; Jackson Laboratories). Upon 9 days of differentiation, these BAs were treated for 4 hours with different doses of 5-HT. Because in vitro there is not a continuous supply of 5-HT as there is in vivo, cells were treated with paroxetine to inhibit the uptake and consequent degradation of 5-HT, and to observe 5-HT receptor specific effects. These cells were then lysed, incubated with a luciferin assay cocktail, and the light generated quantified on a microplate reader.

[5] = tested on: 5-HT receptor; experiment: Isoproterenol-induced lipolysis (FFA release) in immortalized BAT cells; type: cell-based, mouse; details: 5-HT at 100 μM, n=2
Protocol: Briefly, confluent cells were placed in induction media (0.5 mM IBMX; 0.25 mM indomethacin; 2 μg/ml dexamethasone; 1 nM T3, 20 nM insulin) for two days and subsequently maintained on differentiation media (1 nM T3, 20 nM insulin). All experiments were performed on cultures 6-8 days post-induction. Unless otherwise indicated, cells were rinsed with PBS and media was changed to HEPES-buffered Krebs Ringer buffer (HKRB)+1% BSA. Where indicated, BAs were treated with serotonin for 30 min (100 μM; Sigma) followed by isoproterenol (1 nM, Sigma) for 4 h. The serotonin receptor antagonist, methysergide (3 μM) was used 45 min prior treatment with serotonin as above.

[6] = tested on: Chow fed female FVBNJ mice; experiment: Acute xylamidine, 5-HT and glucose injection: glucose tolerance; type: in vivo; details: acute administration 3 mg/kg i.p.; effect larger when pre-treated with 5-HT
Protocol: as §1

[7] = tested on: Chow mice; experiment: Repeated xylamidine tosylate in chow mice: BAT energy expenditure with saline or CL-316,243; type: in vivo
Protocol: as §1

[8] = tested on: mice on a HFD; experiment: Chronic xylamidine tosylate in mice on a HFD; type: in vivo
Protocol: (B) graphically depicts the fat content of mice from (A). […] Bars/points represent mean and error bars indicate S.E.M;
as §1

[9] = chronic administration, high fat diet

T1 sequence (P35363 whole entry): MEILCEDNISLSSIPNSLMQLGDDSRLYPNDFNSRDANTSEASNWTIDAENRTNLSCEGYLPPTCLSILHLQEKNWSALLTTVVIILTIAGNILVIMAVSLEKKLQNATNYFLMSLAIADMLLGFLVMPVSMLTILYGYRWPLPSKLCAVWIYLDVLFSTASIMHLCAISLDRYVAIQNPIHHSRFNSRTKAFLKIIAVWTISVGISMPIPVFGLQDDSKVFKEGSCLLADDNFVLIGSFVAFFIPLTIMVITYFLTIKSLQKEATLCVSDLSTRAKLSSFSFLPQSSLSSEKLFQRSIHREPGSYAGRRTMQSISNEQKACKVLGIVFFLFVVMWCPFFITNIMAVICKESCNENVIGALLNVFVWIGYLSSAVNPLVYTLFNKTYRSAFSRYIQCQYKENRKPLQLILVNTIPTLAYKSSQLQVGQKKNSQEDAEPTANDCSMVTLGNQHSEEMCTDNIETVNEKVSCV

## NCCc1c[nH]c2ccc(O)cc12 [5-HT, 5-hydroxytryptamine]
[1]; brown adipocytes stained with Fluo-4, agonist treatment
  Ca2+ levels: increased
[2]
  isoproterenol-stimulated cAMP: attenuated
  phosphorylation of protein kinase A substrates (HSL S660): attenuated
[2]; Pgc1a, Pdk4, Ucp1
  induction of the thermogenic gene program: blunted
[3]; BAT activated with CL-316,243, 5 mg/kg 5-HT
  brown adipose tissue associated oxygen consumption and inter-scapular surface area temperature: significantly attenuated
[3]; thermoneutral conditions, BAT inactive (saline), 5 mg/kg 5-HT
  markers of brown adipose tissue activity (VO2, interscapular surface temperature): no effect
[4]; brown adipocytes
  Ucp1 mRNA: decreased
  Ucp1 promoter activity: decreased
[4]; brown adipocytes, chronic treatment for NBOH-2C-CN
  UCP1 protein levels: decreased
[4]; cultured brown adipocytes, only in the presence of paroxetine (SSRI), 8 days
  UCP1 protein content: decreased
[5]
  isoproterenol-induced increases in lipolysis: blunts

## COc1cccc(OC(C)CNC(=N)Cc2cccc(C)c2)c1.Cc1ccc(S(=O)(=O)O)cc1 (stereo not shown) [xylamidine tosylate]
[1]; pre-treatment with antagonist
  5-HT induced Ca2+ transients: attenuated
[6]
  glucose tolerance: improved
[3]; pre-treatment 3 mg/kg, CL-316,243 activated BAT
  effects of 5-HT on BAT activity: completely blocked
[7]; chow mice, repeated administration 3 mg/kg daily ~5 weeks, CL-316,243
  brown adipose tissue specific energy expenditure: increased
[7]; saline
  energy expenditure when BAT is inactive: no effect
[8]; 3 mg/kg daily, high fat diet
  oxygen consumption, heat production, and non-moving oxygen consumption: increased
[8]; 3 mg/kg daily, high fat diet (45% of calories from fat)
  glucose tolerance: improved
[8]; [9]
  iWAT levels of UCP1 and mitochondrial proteins: increased
  iWAT mRNA levels of Prdm16: elevated
  liver triglycerides levels: significantly reduced
  weight gain and increases in fat mass: prevented

Reference: patent publication US11278549B2, “Method of treating obesity” (McMaster University, priority 2013, dated 2022)
